Here are results for 11 molecules from patent publication US11452718B2 (AVALYN PHARMA INC., priority 2012, dated 2022).

The IC50 is the point on the concentration scale where inhibition reaches its midpoint.

Series [1] in a line: Pharmacokinetics and tissue distribution (lung, plasma, heart, kidney) of co-solvent formulations, bolus intratracheal aerosol. It is filed as in vivo, Sprague-Dawley rats. To be noted: for Analyte in lung tissue, Mean: about 4 mg/kg pirfenidone IT bolus aerosol. How it is done:
Selected formulations were prepared for pharmacokinetic analysis following aerosol delivery to rat lung. […] Formulations prepared for this study are outlined in Table 9. […] The sample was agitated until completely dissolved. […] Filtered samples were analyzed by HPLC.

For series [2] the following is noted: in vivo; cited from earlier work.
In a further series the test system is cancer patients. The note with it: cited from earlier work.
In series [3] the test system is relapsed/refractory multiple myeloma. The note with it: cited from earlier work.
The next series deals with PI3K. To be noted: cited from earlier work.
Another series concerns the target mTOR (Homo sapiens, UniProt P42345). To be noted: cited from earlier work.
The subject of a further series is breast cancer stem cells. To be noted: mouse, in vivo; cited from earlier work.
For a further series, the system named is p110-γ and p110-δ. The note with it: versus the other isoforms; cited from earlier work.
Series [4] has as its system EGFR mutation positive patients. To be noted: cited from earlier work.
The test system of series [5] is sol elastase activity of CF sputum. The note with it: direct treatment of unprocessed CF sputum; cited from earlier work.

With `O=C(O)c1ccc(=O)n(-c2ccccc2)c1`, the “Analyte in lung tissue, Mean” value in series [1] (0 MIN) is 0.00 μg/gram; in [1] (Group 1, 0.0333 hr) it was 0.12 μg/gram; in series [1] (Group 1, 0.0667 hr) it was 0.13 μg/gram; in series [1] (Group 1, 0.1 hr), 0.48 μg/gram; in [1] (Group 1, 0.167 hr), 0.49 μg/gram; in [1] (Group 1, 0.333 hr), 0.96 μg/gram. Moreover, the “Analyte in lung tissue, Mean” value in [1] (Group 1, 0.667 hr) came out at 0.96 μg/gram; in series [1] (Group 1, 1 hr), 0.73 μg/gram; in series [1] (Group 1, 2 hr), 0.21 μg/gram; in series [1] (Group 1, 2.5 hr), 0.10 μg/gram; in [1] (Group 1, […]) it was 0.48 μg/gram; in series [1] (Group 3, 0.0333 hr), 0.05 μg/gram. Also, the “Analyte in lung tissue, Mean” value stood at 0.36 μg/gram in [1] (Group 3, 0.0667 hr); 0.55 μg/gram in series [1] (Group 3, 0.1 hr); 0.86 μg/gram in [1] (Group 3, 0.167 hr); 1.09 μg/gram in series [1] (Group 3, 0.333 hr); 0.81 μg/gram in [1] (Group 3, 0.667 hr); 0.70 μg/gram in series [1] (Group 3, 1 hr). Further, the “Analyte in lung tissue, Mean” value in series [1] (Group 3, 2 hr) is listed as 0.32 μg/gram; in [1] (Group 3, 2.5 hr), 0.14 μg/gram; in series [1] (Group 3, […]), 0.52 μg/gram; in series [1] (Group 5, 0.0333 hr), 0.17 μg/gram; in [1] (Group 5, 0.0667 hr), 0.42 μg/gram; in series [1] (Group 5, 0.1 hr) it was 0.35 μg/gram. In addition, the “Analyte in lung tissue, Mean” value in series [1] (Group 5, 0.167 hr) is reported as 0.53 μg/gram; in series [1] (Group 5, 0.333 hr) it was 1.32 μg/gram; in series [1] (Group 5, 0.667 hr) it was 0.96 μg/gram; in [1] (Group 5, 1 hr), 0.75 μg/gram; in [1] (Group 5, 2 hr), 0.18 μg/gram; in series [1] (Group 5, 2.5 hr), 0.10 μg/gram. The “Analyte in lung tissue, Mean” value came out at 0.45 μg/gram in series [1] (Group 5, […]); 0.17 μg/gram in series [1] (Group 6, 0.0333 hr); 0.43 μg/gram in series [1] (Group 6, 0.0667 hr); 0.37 μg/gram in [1] (Group 6, 0.1 hr); 0.64 μg/gram in series [1] (Group 6, 0.167 hr); 0.94 μg/gram in series [1] (Group 6, 0.333 hr). Moreover, the “Analyte in lung tissue, Mean” value in series [1] (Group 6, 0.667 hr) is on record as 0.92 μg/gram; in series [1] (Group 6, 1 hr), 0.78 μg/gram; in series [1] (Group 6, 2 hr), 0.24 μg/gram; in series [1] (Group 6, 2.5 hr) it was 0.14 μg/gram; in series [1] (Group 6, […]) it was 0.43 μg/gram.
For `O=C(O)c1ccc(=O)n(-c2ccccc2)c1` [5-carboxy-pirfenidone], in [1] (primary pirfenidone liver metabolite), the “appearance of metabolite after direct aerosol administration to the lung” value is recorded as “delayed appearance”. Also, in [2], the “share of urinary excretion being the primary metabolite” value is on record as 95%.
Turning to `N#CC1(c2ccc(NC(=O)c3cccnc3NCc3ccncc3)cc2)CCCC1` [Apatinib], in the series on cancer patients (1000 mg/day), the dose limiting toxicities is 3 of 3. Also, in the series on cancer patients (65 cancer patients, Phase I/II), the complete response is recorded as 1.54%, the partial response is reported as 12.31%, the progressive disease is listed as 20% and the stable disease is given as 66.15%. Also, in the series on cancer patients (daily for 28 days), the well tolerated dose result is “below 750 mg/day”. For the same molecule, the maximum tolerated dose in the series on cancer patients (human, in vivo) was 850 mg/day.
Regarding `CC(C)C[C@H](NC(=O)[C@H](Cc1ccccc1)NC(=O)c1cnccn1)B(O)O` [Bortezomib], the “patients with peripheral neuropathy” value in series [3] (human, in vivo) is 30%. Moreover, the “time to peak concentrations” value in series [3] (intravenous administration) was “about 30 minutes”.
For `CS(=O)(=O)N1CCN(Cc2cc3nc(-c4cccc5[nH]ncc45)nc(N4CCOCC4)c3s2)CC1` [GDC-0941], the IC50 with PI3K was […].
With `Cc1c(CN2CCN(S(C)(=O)=O)CC2)sc2c(N3CCOCC3)nc(-c3cnc(N)nc3)nc12` [GNE-477], the IC50 at mTOR is 21 nM.
In the case of `CC[C@@H](C(=O)[C@@H](C)[C@@H](O)[C@H](C)[C@@H]1O[C@@H]([C@@H](CC)C(=O)O)CC[C@@H]1C)[C@H]1O[C@]2(C=C[C@@H](O)[C@]3(CC[C@@](C)([C@H]4CC[C@](O)(CC)[C@H](C)O4)O3)O2)[C@H](C)C[C@@H]1C` [Salinomycin], the “effectiveness relative to paclitaxel” value in the series with breast cancer stem cells is “at least 100 times”.
Turning to `Nc1nc(N)c2nc(-c3cccc(O)c3)c(-c3cccc(O)c3)nc2n1` [TG100-115], the “better potency against p110-γ and p110-δ” value in the series on p110-γ and p110-δ is reported as 5-10 fold.
As to `C#Cc1cccc(Nc2ncnc3cc(OCCOC)c(OCCOC)cc23)c1` [erlotinib], in series [4] (EGFR mutation positive patients), the response rate result is listed as “approximately 60%”. In addition, in [4] (human, in vivo), the “time to development of resistance from the start of treatment” value is 8-12 months.
DNase: the “increase of elastase activity” value in [5] is 190%.

B1: reduced rhTrx: stable reduced form of recombinant human thioredoxin (protein, UniProt P10599 2-105, looked up)
Thioredoxin: VKQIESKTAFQEALDAAGDKLVVVDFSATWCGPCKMIKPFFHSLSEKYSNVIFLEVDVDDCQDVASECEVKCMPTFQFFKKGQKVGEFSGANKEKLEATINELV
modifications: reduced form
B1: the “increase of elastase activity” value in series [5] is given as 60%.
